Paper PMC9398908, “GLP-1-mediated delivery of tesaglitazar improves obesity and glucose metabolism in male mice” (Nature Metabolism, 2022)
“And” between values parts separate entries of the source, which are not always exact repeats. Identical values can stand only once.

Assays:
[1] = target: T1, PPARγ2/RXR (Homo sapiens, UniProt P37231); assay: RXR-Rluc8 / PPARγ2-YFP heterodimerization (BRET) in hGLP-1R(+) HEK293T cells; type: cell-based; conditions: GLP-1R (+), 1μM
T1 construct: host or cells: HEK293T, with (A8) or without (A9) co-expressed hGLP-1R
T1 sequence (P37231 1-505): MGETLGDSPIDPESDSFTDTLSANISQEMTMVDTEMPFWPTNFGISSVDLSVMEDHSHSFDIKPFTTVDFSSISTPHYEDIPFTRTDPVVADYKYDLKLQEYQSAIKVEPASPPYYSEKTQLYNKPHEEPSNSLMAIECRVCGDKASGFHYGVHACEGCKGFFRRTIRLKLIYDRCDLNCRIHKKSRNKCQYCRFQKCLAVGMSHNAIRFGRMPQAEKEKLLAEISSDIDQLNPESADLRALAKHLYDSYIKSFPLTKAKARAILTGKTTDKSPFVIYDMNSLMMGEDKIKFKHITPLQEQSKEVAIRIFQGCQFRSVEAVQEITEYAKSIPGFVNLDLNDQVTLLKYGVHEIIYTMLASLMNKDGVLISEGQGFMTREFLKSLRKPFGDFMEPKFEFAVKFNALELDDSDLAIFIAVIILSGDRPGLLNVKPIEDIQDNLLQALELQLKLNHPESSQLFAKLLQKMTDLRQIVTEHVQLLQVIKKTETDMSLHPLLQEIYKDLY
T1 sequence (P19793 1-462 partner): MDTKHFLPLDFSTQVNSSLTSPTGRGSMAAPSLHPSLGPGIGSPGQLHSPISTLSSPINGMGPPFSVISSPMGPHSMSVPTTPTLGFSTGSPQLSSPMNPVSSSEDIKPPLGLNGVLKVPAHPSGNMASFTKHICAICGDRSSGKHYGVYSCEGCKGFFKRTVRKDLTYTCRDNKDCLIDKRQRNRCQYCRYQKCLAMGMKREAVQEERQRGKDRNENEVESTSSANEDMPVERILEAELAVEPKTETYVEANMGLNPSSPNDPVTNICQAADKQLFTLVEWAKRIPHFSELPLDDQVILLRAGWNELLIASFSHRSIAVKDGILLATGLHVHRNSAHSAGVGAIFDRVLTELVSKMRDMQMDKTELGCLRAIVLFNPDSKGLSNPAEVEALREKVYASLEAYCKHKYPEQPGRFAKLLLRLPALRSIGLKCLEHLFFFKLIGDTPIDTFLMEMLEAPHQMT
Experimental: (§1) HEK293T cells (700,000 per well) were seeded in six-well plates and incubated to 70% confluency in DMEM (10% FBS, 1% Pen/Strep). Twenty-four hours following seeding, transient transfections were performed using Lipofectamine 2000 (catalogue no. 11668019, Invitrogen) according to the manufacturer’s protocol without including additional transformation carrier DNA.
(§2) Twenty-four hours following transfection, HEK293T cells or MIN6 cells were washed with PBS and resuspended in FluoroBrite phenol red-free complete media (catalogue no. A1896701, Life Technologies) containing 5% FBS and 2 mM of L-glutamine (catalogue no. 25030081, Life Technologies). 100,000 cells per well were plated into poly-D-lysine-coated (catalogue no. P6403, Sigma-Aldrich) 96-well white polystyrene LumiNunc plates (catalogue no. 10072151, Thermo Fisher Scientific). After 24 h, the media was replaced with PBS (catalogue no. 10010056, Gibco) containing 10 μM of coelenterazine-h (catalogue no. S2011, Promega) or 1:500 dilution of NanoGlo (catalogue no. N1110, Promega). BRET measurements were taken every 30 s–2 min using a PHERAstar FS multi-mode microplate reader. Baseline measurements were taken after an initial 5 min of incubation with coelenterazine-h or NanoGlo-containing PBS after which cells were then treated with either vehicle (PBS) or respective ligands. The resulting ligand-specific ratiometric BRET signals were normalized to vehicle producing the ‘ligand-induced BRET ratio’[37], followed by an additional normalization step to well-specific baseline readings. Ligand-induced measurements on the temporal scale is represented as the subsequent measurement after time point zero. Positive or negative incremental AUC (+iAUC/−iAUC) were calculated where noted. Each experiment was independently performed at least three times, each with at least three technical replicates for each group.
(§3) Untagged hGLP-1R was purchased from Sino Biological Inc. (catalogue no. HG13944-UT), hGLP-1R-GFP was a kind gift from D. Hodson (University of Birmingham), and hGLP-1R-Rluc8 was a kind gift from P. Sexton (Monash University, Melbourne, Australia). Gαs recruitment to the GLP-1R-GFP was quantified using mini-Gαs, a protein probe that translocates to ligand-bound Gαs-coupled G-protein coupled receptors. NES-Nluc-MiniGαs was a gift from K. Pfleger (Harry Perkins Institute of Medical Research, Nedlands, Western Australia, Australia). Intracellular cAMP was measured using the YFP-Epac-Rluc CAMYEL sensor[39]. hGLP-1R-RLUC8 internalization was quantified using the intracellular plasma membrane marker Venus-KRAS[40]. Venus-KRAS was a kind gift from K. Pfleger. GLP-1R-Rluc8 lysosomal colocalization was measured using Lamp1-mNeonGreen. Lamp1-mNeonGreen was a gift from D. Gadella (Addgene plasmid no. 98882). Time-dependent RXR/PPARγ heterodimerization was measured using RXR-Rluc8 and PPARγ2-YFP, both of which were kind gifts from V. Ollendorf[41].

[2] = target: T1, PPARγ2/RXR; assay: RXR-Rluc8 / PPARγ2-YFP heterodimerization (BRET) in hGLP-1R(−) HEK293T cells; type: cell-based; conditions: GLP-1R (-), 1μM
Experimental: as §1, §2
as §3, with “Venus-KRAS was a kind gift from K. Pfleger.” left out, “Lamp1-mNeonGreen was a gift from D. Gadella (Addgene plasmid no. 98882).” left out

[3] = test system: DIO mice; assay: In vivo glucose-stimulated insulin secretion in DIO mice (Fig. 2i); parameters: species or system mouse; conditions: Figure 2i, individual mice

SMILES: CCO[C@@H](Cc1ccc(OCCc2ccc(OS(C)(=O)=O)cc2)cc1)C(=O)O [tesaglitazar, (S)-2-ethoxy-3-(4-(4-((methylsulfonyl)oxy)phenethoxy)phenyl) propanoic acid]
- RXR/PPARγ Heterodimerization (AUC), +iAUC ([1]; replicate 1): 81.74
- RXR/PPARγ Heterodimerization (AUC), +iAUC ([1]; replicate 2): 115.10
- RXR/PPARγ Heterodimerization (AUC), +iAUC ([1]; replicate 3): 84.31
- RXR/PPARγ Heterodimerization (AUC), +iAUC ([1]; replicate 4): 42.82
- RXR/PPARγ Heterodimerization (AUC), +iAUC ([1]; replicate 5): 35.86
- RXR/PPARγ Heterodimerization (AUC), +iAUC ([1]; replicate 6): 49.17
- RXR/PPARγ Heterodimerization (AUC), +iAUC ([1]; replicate 7): 59.85
- RXR/PPARγ Heterodimerization (AUC), +iAUC ([1]; replicate 8): 106.60
- RXR/PPARγ Heterodimerization (AUC), +iAUC ([2]; replicate 1): 59.69
- RXR/PPARγ Heterodimerization (AUC), +iAUC ([2]; replicate 2): 107.20
- RXR/PPARγ Heterodimerization (AUC), +iAUC ([2]; replicate 3): 71.87
- RXR/PPARγ Heterodimerization (AUC), +iAUC ([2]; replicate 4): 114.00
- GSIS [3]: 0.684 and 1.33 and 1.611 and 0.796 and 0.457 and 0.687 and 1.335 and 1.19
